Values joined by “and” are separate entries in the source; they are usually repeats but may differ in a detail not shown here. Equal values may be shown once. Toxic doses and inconclusive results are not listed. Rule as the data show it: active = T/C of 150% or more; inactive = T/C below 125%.
Test system: L1210 leukemia ip in BDF1 mice, survival T/C
Experiment: NCI In Vivo Anticancer Drug Screen. Data for tumor model L1210 Leukemia (intraperitoneal) in B6D2F1 (BDF1) mice
Conditions: endpoint: mean survival time, higher = longer survival
Method in brief: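 Ratio derived from survival: compound-dosed mice over vehicle-dosed mice, all bearing a transplantable tumor.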

[1] = dose: 100.0 mg/kg/injection, schedule: Q01DX001 (ip), vehicle: saline
[2] = dose: 200.0 mg/kg/injection, schedule: Q01DX001 (ip), vehicle: saline
[3] = dose: 100.0 mg/kg/injection, schedule: Q01DX009 (ip), vehicle: saline with Tween-80
[4] = dose: 200.0 mg/kg/injection, schedule: Q01DX009 (ip), vehicle: saline with Tween-80
[5] = dose: 400.0 mg/kg/injection, schedule: Q01DX009 (ip), vehicle: saline with Tween-80
[6] = dose: 100.0 mg/kg/injection, schedule: Q04DX003 (ip), vehicle: saline with Tween-80
[7] = dose: 200.0 mg/kg/injection, schedule: Q04DX003 (ip), vehicle: saline with Tween-80
[8] = dose: 100.0 mg/kg/injection, schedule: Q01DX009 (ip), vehicle: gum acacia
[9] = dose: 100.0 mg/kg/injection, schedule: Q04DX003 (ip), vehicle: gum acacia
[10] = dose: 200.0 mg/kg/injection, schedule: Q04DX003 (ip), vehicle: gum acacia
[11] = dose: 100.0 mg/kg/injection, schedule: Q04DX003 (ip), vehicle: saline
[12] = dose: 200.0 mg/kg/injection, schedule: Q04DX003 (ip), vehicle: saline
[13] = dose: 400.0 mg/kg/injection, schedule: Q04DX003 (ip), vehicle: saline

Measured: T/C

CN1CCN(Cc2c(O)ccc3c2OC(C)(C)C2=C3CCCC2)CC1
inactive: [1] 89 % of control | [2] 98 % of control

O=[N+]([O-])CC(Nc1ccc(Br)cc1)c1ccccc1 (centres undefined)
inactive: dose: 67.0 mg/kg/injection, schedule: Q01DX009 (ip), vehicle: saline with Tween-80 95 % of control | [3] 97 % of control | dose: 150.0 mg/kg/injection, schedule: Q01DX009 (ip), vehicle: saline with Tween-80 100 % of control | [4] 91 % of control | [5] 86 % of control

O=C1NC(=O)C(c2ccc(C(=O)O)cc2)N1 (centres undefined)
inactive: dose: 50.0 mg/kg/injection, schedule: Q01DX001 (ip), vehicle: saline 107 % of control | [1] 105 % of control | [2] 100 % of control | dose: 400.0 mg/kg/injection, schedule: Q01DX001 (ip), vehicle: saline 96 % of control

CCOc1ccc(NC(=O)CCN2CCC(O)(c3ccccc3)CC2)cc1
inactive: [3] 96 % of control | [6] 103 % of control | [4] 86 % of control | [7] 100 % of control | [5] 91 % of control | dose: 400.0 mg/kg/injection, schedule: Q04DX003 (ip), vehicle: saline with Tween-80 95 % of control

COc1ccc(NC(=O)Nc2c(C)cc(C)cc2C)cc1
inactive: [8] 94 % of control | [9] 93 % of control | dose: 200.0 mg/kg/injection, schedule: Q01DX009 (ip), vehicle: gum acacia 96 % of control | [10] 95 % of control | dose: 400.0 mg/kg/injection, schedule: Q01DX009 (ip), vehicle: gum acacia 98 % of control | dose: 400.0 mg/kg/injection, schedule: Q04DX003 (ip), vehicle: gum acacia 87 % of control

CCN(CC)CCOCCO
inactive: [11] 96 % of control | [12] 102 % of control | [13] 109 % of control

OCCCCCCN=Cc1ccccc1O.OCCCCCCN=Cc1ccccc1O.[Cu]
inactive: dose: 9.5 mg/kg/injection, schedule: Q01DX001 (ip), vehicle: other 95 % of control | dose: 19.0 mg/kg/injection, schedule: Q01DX001 (ip), vehicle: other 100 % of control and 92 % of control | dose: 19.0 mg/kg/injection, schedule: Q01DX009 (ip), vehicle: other 93 % of control | dose: 38.0 mg/kg/injection, schedule: Q01DX001 (ip), vehicle: other 94 % of control and 95 % of control | dose: 38.0 mg/kg/injection, schedule: Q01DX009 (ip), vehicle: other 95 % of control | dose: 75.0 mg/kg/injection, schedule: Q01DX001 (ip), vehicle: other 95 % of control and 102 % of control | dose: 75.0 mg/kg/injection, schedule: Q01DX009 (ip), vehicle: other 96 % of control

C=CC1CC2C=CC1C2 (centres undefined)
inactive: [11] 100 % of control | [12] 103 % of control | [13] 106 % of control

CNC(=O)N/N=C(C)\C=N\NC(=O)NC
inactive: dose: 75.0 mg/kg/injection, schedule: Q01DX001 (ip), vehicle: saline 97 % of control | dose: 150.0 mg/kg/injection, schedule: Q01DX001 (ip), vehicle: saline 108 % of control | dose: 300.0 mg/kg/injection, schedule: Q01DX001 (ip), vehicle: saline 92 % of control

CC(C)(C)C(=O)[CH-]C(=O)C(C)(C)C.CC(C)(C)C(=O)[CH-]C(=O)C(C)(C)C.CC(C)(C)C(=O)[CH-]C(=O)C(C)(C)C.CN(C)C=O.[Er+3]
inactive: dose: 100.0 mg/kg/injection, schedule: Q04DX002 (ip), vehicle: saline with Tween-80 105 % of control | dose: 200.0 mg/kg/injection, schedule: Q04DX002 (ip), vehicle: saline with Tween-80 94 % of control | dose: 400.0 mg/kg/injection, schedule: Q04DX002 (ip), vehicle: saline with Tween-80 94 % of control

N=C1c2ccccc2-c2ccccc21
inactive: [6] 96 % of control | [7] 88 % of control

CCc1cc(O)c(Cl)c(C)c1Cl
inactive: dose: 50.0 mg/kg/injection, schedule: Q01DX009 (ip), vehicle: gum acacia 97 % of control | dose: 50.0 mg/kg/injection, schedule: Q04DX003 (ip), vehicle: gum acacia 94 % of control | [8] 92 % of control | [9] 98 % of control | [10] 96 % of control

From PubChem BioAssay AID248 (DTP/NCI, 2004)
